Experimental data published in publication PMC11766267 (International Journal of Molecular Sciences, 2025).
Where “and” joins values, the source holds several entries; their conditions need not be identical. Equal values may be shown once. Read-outs that look alike come from different tables or passages of the source.

Tests used:
MDA-MB-231 = test: MTT cytotoxicity assay, MDA-MB-231; type: cell-based; settings: Homo sapiens, 24 h treatment, mean ± SD of triplicate
How it was run: (§1)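 MTT read-out; insoluble formazan solubilised in DMSO.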

[1] = system: HCT-116, MDA-MB-231, HeLa, and MCF-7; test: MTT cytotoxicity assay, ranges stated over several cell lines; type: cell-based; settings: Homo sapiens
How it was run: as §1

MCF-7 [2] = test: MTT cytotoxicity assay, MCF-7; type: cell-based, human; settings: Homo sapiens, MCF7, 24 h, 24 h treatment, mean ± SD of triplicate
How it was run: as §1

HeLa = test: MTT cytotoxicity assay, HeLa; type: cell-based; settings: Homo sapiens, 24 h treatment, mean ± SD of triplicate
How it was run: as §1

HCT-116 = test: MTT cytotoxicity assay, HCT-116; type: cell-based; settings: Homo sapiens, 24 h treatment, mean ± SD of triplicate
How it was run: as §1

WI-38 = test: MTT cytotoxicity assay, normal cell line WI-38; type: cell-based, human; settings: normal (non-cancer) cell line, 24 h treatment
How it was run: as §1

[3] = MTT cytotoxicity assay, normal cell line WI-38; type: cell-based, human; settings: human, WI-38 cells (normal human lung fibroblasts), normal (non-cancer) cell line, 24 h treatment
How it was run: as §1

[4] = parameters: method as in PMID 15863696; settings: cited from earlier work
[5] = biological target: T1, aromatase (CYP19A, EC 1.14.14.14) (Homo sapiens, UniProt P11511); test: biochemical
T1 construct: Microsomal samples were isolated from tissue using the Microsome Isolation Kit; tissue BioVision K983-100; host or cells: microsomes from an unnamed tissue
T1 sequence (P11511 1-503): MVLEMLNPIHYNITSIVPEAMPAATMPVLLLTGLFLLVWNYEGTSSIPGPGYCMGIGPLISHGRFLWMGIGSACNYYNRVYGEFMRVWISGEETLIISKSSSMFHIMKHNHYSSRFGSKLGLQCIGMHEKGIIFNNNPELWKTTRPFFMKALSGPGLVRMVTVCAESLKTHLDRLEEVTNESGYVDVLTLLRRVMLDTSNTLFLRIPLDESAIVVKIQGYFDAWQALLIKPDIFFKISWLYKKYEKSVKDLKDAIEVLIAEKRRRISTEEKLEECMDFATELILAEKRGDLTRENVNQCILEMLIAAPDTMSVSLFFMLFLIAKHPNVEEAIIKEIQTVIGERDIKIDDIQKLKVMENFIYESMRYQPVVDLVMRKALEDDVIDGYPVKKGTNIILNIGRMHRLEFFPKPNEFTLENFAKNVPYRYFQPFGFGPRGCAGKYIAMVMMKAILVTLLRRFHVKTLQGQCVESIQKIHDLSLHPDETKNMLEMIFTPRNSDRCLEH
Experimental: In vitro aromatase assay was performed using the BioVision Aromatase Activity Assay Kit (Catalog # K983-100; BioVision, Milpitas, CA, USA). Microsomal samples were isolated from tissue using the Microsome Isolation Kit (Cat. #K249; BioVision, Milpitas, CA, USA). A standard curve was established by diluting the Fluorescence Standard provided in the kit to create a 0.5 pmole/µL solution, followed by setting up a series of standards in a white 96-well plate, adjusting the total volume to 100 µL with aromatase assay buffer. For each reaction well, a 2X concentrated mix was prepared by adding 2–48 µL of the microsomal sample and 2 µL of the NADPH generating system, bringing the final volume to 50 µL with aromatase assay buffer. Background controls (no enzyme) and positive controls (with recombinant aromatase) were included. […] After a 10 min incubation at 37 °C, 30 µL of the substrate/NADP+ mixture was added to each well, and fluorescence was measured immediately in kinetic mode for 60 min at 37 °C. Finally, the change in fluorescence was calculated to determine the specific activity of aromatase using the formula provided in the kit protocol.

VEGFR-2 = VEGFR-2 (Homo sapiens, UniProt P35968); test: In vitro protein kinase inhibition assay (ELISA kit), VEGFR-2
VEGFR-2, sequence (P35968 20-1356): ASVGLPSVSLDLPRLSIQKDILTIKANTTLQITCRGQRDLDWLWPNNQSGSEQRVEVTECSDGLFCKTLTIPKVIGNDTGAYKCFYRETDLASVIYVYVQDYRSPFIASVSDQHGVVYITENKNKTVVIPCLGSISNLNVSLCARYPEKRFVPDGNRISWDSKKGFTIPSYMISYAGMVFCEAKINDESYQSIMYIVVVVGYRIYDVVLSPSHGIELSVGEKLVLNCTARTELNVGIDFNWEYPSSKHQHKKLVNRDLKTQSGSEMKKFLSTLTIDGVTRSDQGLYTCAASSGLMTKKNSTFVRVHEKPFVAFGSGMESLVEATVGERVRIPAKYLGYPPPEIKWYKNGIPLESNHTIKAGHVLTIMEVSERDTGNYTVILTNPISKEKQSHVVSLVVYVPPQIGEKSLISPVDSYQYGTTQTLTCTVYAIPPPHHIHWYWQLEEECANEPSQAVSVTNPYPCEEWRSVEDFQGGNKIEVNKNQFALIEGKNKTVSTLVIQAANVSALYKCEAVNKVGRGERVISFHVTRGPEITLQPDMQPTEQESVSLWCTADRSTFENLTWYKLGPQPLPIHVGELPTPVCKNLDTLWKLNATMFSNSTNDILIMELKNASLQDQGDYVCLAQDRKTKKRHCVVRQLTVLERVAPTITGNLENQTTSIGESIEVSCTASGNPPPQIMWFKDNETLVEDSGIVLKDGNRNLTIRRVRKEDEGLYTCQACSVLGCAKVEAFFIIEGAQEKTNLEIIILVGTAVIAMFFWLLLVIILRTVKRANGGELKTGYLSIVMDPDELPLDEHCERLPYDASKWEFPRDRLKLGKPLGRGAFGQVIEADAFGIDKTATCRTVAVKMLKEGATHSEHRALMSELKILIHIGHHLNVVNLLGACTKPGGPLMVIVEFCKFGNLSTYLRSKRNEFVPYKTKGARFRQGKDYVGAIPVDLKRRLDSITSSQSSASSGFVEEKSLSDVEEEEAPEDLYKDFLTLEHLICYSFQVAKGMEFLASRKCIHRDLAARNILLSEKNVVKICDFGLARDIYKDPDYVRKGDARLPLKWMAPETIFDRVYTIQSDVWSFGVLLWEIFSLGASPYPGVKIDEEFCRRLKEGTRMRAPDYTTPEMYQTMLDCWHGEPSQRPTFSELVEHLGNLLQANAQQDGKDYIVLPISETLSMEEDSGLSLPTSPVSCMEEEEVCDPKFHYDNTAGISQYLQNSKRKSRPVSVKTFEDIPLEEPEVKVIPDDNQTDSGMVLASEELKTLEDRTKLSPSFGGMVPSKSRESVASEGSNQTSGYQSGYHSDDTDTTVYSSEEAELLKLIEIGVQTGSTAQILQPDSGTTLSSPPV

MCF-7a = test: In vitro anti-estrogenic activity assay, MCF-7a
HER2 = HER2 (Homo sapiens, UniProt P04626); test: In vitro protein kinase inhibition assay (ELISA kit), HER2
HER2, sequence (P04626 23-1255): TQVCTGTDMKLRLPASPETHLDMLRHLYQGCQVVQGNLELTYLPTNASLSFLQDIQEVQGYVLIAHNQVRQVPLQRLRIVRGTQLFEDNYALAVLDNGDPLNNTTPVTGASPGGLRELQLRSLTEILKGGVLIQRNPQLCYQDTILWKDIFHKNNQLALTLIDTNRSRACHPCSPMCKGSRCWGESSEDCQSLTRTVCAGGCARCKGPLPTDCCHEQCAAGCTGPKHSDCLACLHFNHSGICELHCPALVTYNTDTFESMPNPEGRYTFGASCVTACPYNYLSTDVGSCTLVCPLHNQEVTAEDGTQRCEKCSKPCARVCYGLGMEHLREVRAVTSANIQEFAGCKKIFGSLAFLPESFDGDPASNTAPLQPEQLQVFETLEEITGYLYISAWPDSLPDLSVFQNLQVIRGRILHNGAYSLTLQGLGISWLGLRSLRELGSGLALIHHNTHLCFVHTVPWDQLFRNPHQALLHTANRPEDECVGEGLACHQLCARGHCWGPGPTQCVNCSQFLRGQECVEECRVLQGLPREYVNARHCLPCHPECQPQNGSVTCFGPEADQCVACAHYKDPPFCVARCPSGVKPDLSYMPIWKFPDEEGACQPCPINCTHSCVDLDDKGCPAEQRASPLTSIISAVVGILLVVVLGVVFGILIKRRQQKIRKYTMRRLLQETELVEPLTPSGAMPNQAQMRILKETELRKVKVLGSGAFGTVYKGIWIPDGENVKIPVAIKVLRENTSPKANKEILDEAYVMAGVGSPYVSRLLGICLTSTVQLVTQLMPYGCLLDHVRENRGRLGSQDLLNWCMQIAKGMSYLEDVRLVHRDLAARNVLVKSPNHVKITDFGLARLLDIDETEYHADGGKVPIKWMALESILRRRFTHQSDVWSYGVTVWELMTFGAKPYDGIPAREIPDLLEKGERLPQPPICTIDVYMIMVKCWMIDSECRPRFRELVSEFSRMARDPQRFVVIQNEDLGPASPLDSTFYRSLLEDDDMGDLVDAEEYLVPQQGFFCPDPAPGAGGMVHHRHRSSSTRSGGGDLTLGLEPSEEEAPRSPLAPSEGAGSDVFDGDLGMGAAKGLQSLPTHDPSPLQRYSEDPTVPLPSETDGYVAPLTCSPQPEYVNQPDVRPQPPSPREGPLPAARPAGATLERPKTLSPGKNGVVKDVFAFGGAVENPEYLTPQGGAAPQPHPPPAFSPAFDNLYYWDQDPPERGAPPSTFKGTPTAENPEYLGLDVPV

CDK2 = CDK2 (Homo sapiens, UniProt P24941); test: In vitro protein kinase inhibition assay (ELISA kit), CDK2
EGFR = EGFR (Homo sapiens, UniProt P00533); test: In vitro protein kinase inhibition assay (ELISA kit), EGFR
EGFR, sequence (P00533 25-1210): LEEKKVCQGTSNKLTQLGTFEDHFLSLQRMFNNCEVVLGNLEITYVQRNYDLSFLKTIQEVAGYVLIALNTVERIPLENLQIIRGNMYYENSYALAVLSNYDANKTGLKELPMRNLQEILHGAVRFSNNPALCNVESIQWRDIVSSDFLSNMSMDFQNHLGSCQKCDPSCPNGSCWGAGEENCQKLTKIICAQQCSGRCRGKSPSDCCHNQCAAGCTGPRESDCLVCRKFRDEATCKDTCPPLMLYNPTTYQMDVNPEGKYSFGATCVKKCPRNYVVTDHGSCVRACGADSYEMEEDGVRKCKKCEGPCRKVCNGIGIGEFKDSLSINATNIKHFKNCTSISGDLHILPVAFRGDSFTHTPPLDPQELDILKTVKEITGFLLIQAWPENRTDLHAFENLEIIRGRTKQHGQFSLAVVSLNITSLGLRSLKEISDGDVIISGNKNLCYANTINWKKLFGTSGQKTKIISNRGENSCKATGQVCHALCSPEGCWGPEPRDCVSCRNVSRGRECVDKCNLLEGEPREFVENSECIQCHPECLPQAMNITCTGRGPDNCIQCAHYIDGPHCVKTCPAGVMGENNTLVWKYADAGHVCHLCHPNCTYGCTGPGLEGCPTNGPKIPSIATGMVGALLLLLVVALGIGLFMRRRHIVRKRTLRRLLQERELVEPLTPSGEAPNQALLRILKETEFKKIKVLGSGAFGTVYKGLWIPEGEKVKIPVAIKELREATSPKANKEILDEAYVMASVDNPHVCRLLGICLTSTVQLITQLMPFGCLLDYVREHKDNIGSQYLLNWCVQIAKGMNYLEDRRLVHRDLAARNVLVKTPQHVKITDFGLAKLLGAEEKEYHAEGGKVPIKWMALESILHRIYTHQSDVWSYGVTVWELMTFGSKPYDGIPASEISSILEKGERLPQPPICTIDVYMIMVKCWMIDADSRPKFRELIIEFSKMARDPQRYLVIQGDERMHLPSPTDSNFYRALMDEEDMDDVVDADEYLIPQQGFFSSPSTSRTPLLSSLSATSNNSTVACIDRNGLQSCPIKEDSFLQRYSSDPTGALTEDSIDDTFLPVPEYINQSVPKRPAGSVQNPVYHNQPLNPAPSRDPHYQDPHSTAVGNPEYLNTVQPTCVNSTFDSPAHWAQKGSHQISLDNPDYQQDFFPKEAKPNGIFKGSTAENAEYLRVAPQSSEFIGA

MCF-7 [6] = test: In vitro anti-estrogenic activity assay, MCF-7
[7] = HCT-116, MDA-MB-231, HeLa, MCF-7, range, read-out: IC50 values, range over the cancer cell lines tested
[8] = cell count relative to the control (17β-E2)

SMILES: COc1cccc(/C=C/C(=O)c2ccccc2)c1 [Compound 4d, (E)-3-(3-Methoxyphenyl)-1-phenylprop-2-en-1-one]
- IC50 (MDA-MB-231): 43.6 ± 2.3 µM
- IC50 [1, 7]: 23.5 to 74.5 µM
- IC50 (MCF-7 [2]): 29.7 ± 1.9 µM
- IC50 (HeLa): 39.4 ± 2.3 µM
- IC50 (HCT-116): 36 ± 2.2 µM
- IC50 (WI-38): 77.3 ± 3.8 µM
- IC50 at 24 h [3]: 77.3 to 100 µM

SMILES: O=C(/C=C/c1ccc(O)cc1)c1ccccc1 [4-hydroxychacone]
- Concentration at which estrogenic activity is shown [4]: 0.0001 mol

SMILES: COc1ccccc1/C=C/C(=O)c1ccccc1 [Compound 4c, (E)-3-(2-Methoxyphenyl)-1-phenylprop-2-en-1-one]
- IC50 (MDA-MB-231): 35.9 ± 2.1 µM
- IC50 [1, 7]: 23.5 to 74.5 µM
- IC50 (MCF-7 [2]): 23.5 ± 1.6 µM
- IC50 (HeLa): 42.5 ± 2.5 µM
- IC50 (HCT-116): 28.4 ± 1.8 µM
- IC50 (WI-38): > 100 µM
- IC50 at 24 h [3]: 77.3 to 100 µM

SMILES: COc1cccc(C(=O)/C=C/c2ccc(OCc3ccccc3)c(OC)c2)c1 [Compound 4u, (E)-3-(4-(Benzyloxy)-3-methoxyphenyl)-1-(3-methoxyphenyl)prop-2-en-1-one]
- IC50 (MDA-MB-231): > 100 µM
- IC50 [1, 7]: 55.6 to 82.8 µM
- IC50 (MCF-7 [2]): 82.8 ± 4.1 µM
- IC50 (HeLa): > 100 µM
- IC50 (HCT-116): 95.3 ± 4.9 µM
- IC50 (WI-38): 39 ± 2.4 µM
- IC50 at 24 h [3]: 40 to 40.1 µM

SMILES: COc1cc(/C=C/C(=O)c2ccccc2)ccc1OCc1ccccc1 [Compound 4t, (E)-3-(4-(Benzyloxy)-3-methoxyphenyl)-1-phenylprop-2-en-1-one]
- IC50 (MDA-MB-231): 64.1 ± 3.8 µM
- IC50 [1, 7]: 55.6 to 82.8 µM
- IC50 (MCF-7 [2]): 55.6 ± 2.9 µM
- IC50 (HeLa): 59.3 ± 3.4 µM
- IC50 (HCT-116): 68.9 ± 3.7 µM
- IC50 (WI-38): 40.1 ± 2.5 µM
- IC50 at 24 h [3]: 40 to 40.1 µM

SMILES: COc1ccc(C(=O)/C=C/c2ccc(OCc3ccccc3)c(OC)c2)cc1 [Compound 4v, (E)-3-(4-(Benzyloxy)-3-methoxyphenyl)-1-(4-methoxyphenyl)prop-2-en-1-one]
- Inhibition (%) Aromatase ([5]; 0.01 µM, individual Data 1-3): 17% and 20%
- Inhibition (%) Aromatase ([5]; 0.1 µM, individual Data 1-3): 36%
- Inhibition (%) Aromatase ([5]; 1 µM, individual Data 1-3): 64% and 63%
- Inhibition (%) Aromatase ([5]; 10 µM, individual Data 1-3): 84% and 87%
- Inhibition (%) Aromatase ([5]; 100 µM, individual Data 1-3): 94% and 97%
- IC50 ([5]; mean ± SD of triplicate, approximate values, read-out: Aromatase Inhibition IC50): 0.357 ± 0.012 µM
- inhibition at 0.01 µM ([5]; read-out: Inhibition (%) Aromatase, 0.01 µM, individual Data 1-3): 18%
- inhibition at 0.1 µM ([5]; read-out: Inhibition (%) Aromatase, 0.1 µM, individual Data 1-3): 34%
- inhibition at 1 µM ([5]; read-out: Inhibition (%) Aromatase, 1 µM, individual Data 1-3): 66%
- inhibition at 10 µM ([5]; read-out: Inhibition (%) Aromatase, 10 µM, individual Data 1-3): 85%
- inhibition at 100 µM ([5]; read-out: Inhibition (%) Aromatase, 100 µM, individual Data 1-3): 95%
- IC50 (MDA-MB-231): 10.2 ± 0.8 µM
- IC50 (VEGFR-2): 1.82 ± 0.062 µM
- Inhibition (%) VEGFR2 (VEGFR-2; 0.01 µM, individual Data 1-3): 5.43% and 9.43%
- Inhibition (%) VEGFR2 (VEGFR-2; 0.1 µM, individual Data 1-3): 15% and 21.8%
- Inhibition (%) VEGFR2 (VEGFR-2; 1 µM, individual Data 1-3): 36.9% and 34.2%
- Inhibition (%) VEGFR2 (VEGFR-2; 10 µM, individual Data 1-3): 67.26% and 74.3%
- Inhibition (%) VEGFR2 (VEGFR-2; 100 µM, individual Data 1-3): 86% and 93.4%
- inhibition at 0.01 µM (VEGFR-2; read-out: Inhibition (%) VEGFR2, 0.01 µM, individual Data 1-3): 7.43%
- inhibition at 0.1 µM (VEGFR-2; read-out: Inhibition (%) VEGFR2, 0.1 µM, individual Data 1-3): 18.1%
- inhibition at 1 µM (VEGFR-2; read-out: Inhibition (%) VEGFR2, 1 µM, individual Data 1-3): 39%
- inhibition at 10 µM (VEGFR-2; read-out: Inhibition (%) VEGFR2, 10 µM, individual Data 1-3): 70.2%
- inhibition at 100 µM (VEGFR-2; read-out: Inhibition (%) VEGFR2, 100 µM, individual Data 1-3): 89.2%
- IC50 ([1]; HCT-116 and HeLa, range over the compounds named, read-out: IC50 values, range against HCT-116 and HeLa): 6.59 to 22.6 µM
- IC50 ([1]; MDA-MB-231 and MCF-7, range over the compounds named, read-out: IC50 values, range against MDA-MB-231 and MCF-7): 2.08 to 13.6 µM
- Cell Proliferation MCF-7a % (MCF-7a; [8]): 98%
- Cell Proliferation MCF-7a Cell Count (MCF-7a; mean ± SD of triplicate): 20,397 ± 589
- Inhibition in MCF-7a (MCF-7a; relative to control): 2%
- IC50 (HER2): 1.57 ± 0.061 µM
- Inhibition (%) Her2 (HER2; 0.01 µM, individual Data 1-3): 4.92% and 2.56% and 8.92%
- Inhibition (%) Her2 (HER2; 0.1 µM, individual Data 1-3): 7.65% and 12.67%
- Inhibition (%) Her2 (HER2; 1 µM, individual Data 1-3): 45.3% and 42.34%
- Inhibition (%) Her2 (HER2; 10 µM, individual Data 1-3): 71.2% and 75.89%
- Inhibition (%) Her2 (HER2; 100 µM, individual Data 1-3): 88.65% and 94.3%
- inhibition at 0.1 µM (HER2; read-out: Inhibition (%) Her2, 0.1 µM, individual Data 1-3): 10.2%
- inhibition at 1 µM (HER2; read-out: Inhibition (%) Her2, 1 µM, individual Data 1-3): 48.9%
- inhibition at 10 µM (HER2; read-out: Inhibition (%) Her2, 10 µM, individual Data 1-3): 74.7%
- inhibition at 100 µM (HER2; read-out: Inhibition (%) Her2, 100 µM, individual Data 1-3): 91.6%
- IC50 (CDK2): 1.03 ± 0.032 µM
- Inhibition (%) CDK2 (CDK2; 0.01 µM, individual Data 1-3): 5.2% and 8.6%
- Inhibition (%) CDK2 (CDK2; 0.1 µM, individual Data 1-3): 18.3% and 24.97%
- Inhibition (%) CDK2 (CDK2; 1 µM, individual Data 1-3): 47.4% and 43.2%
- Inhibition (%) CDK2 (CDK2; 10 µM, individual Data 1-3): 76.2% and 84.1%
- Inhibition (%) CDK2 (CDK2; 100 µM, individual Data 1-3): 89.1% and 95.3%
- inhibition at 0.01 µM (CDK2; read-out: Inhibition (%) CDK2, 0.01 µM, individual Data 1-3): 6.58%
- inhibition at 0.1 µM (CDK2; read-out: Inhibition (%) CDK2, 0.1 µM, individual Data 1-3): 22.9%
- inhibition at 1 µM (CDK2; read-out: Inhibition (%) CDK2, 1 µM, individual Data 1-3): 51.2%
- inhibition at 10 µM (CDK2; read-out: Inhibition (%) CDK2, 10 µM, individual Data 1-3): 79.3%
- inhibition at 100 µM (CDK2; read-out: Inhibition (%) CDK2, 100 µM, individual Data 1-3): 92.3%
- IC50 (MCF-7 [2]): 8.67 ± 0.6 µM
- IC50 (HeLa): 18.2 ± 1.5 µM
- IC50 (EGFR): 0.671 ± 0.022 µM
- Inhibition (%) EGFR (EGFR; 0.01 µM, individual Data 1-3): 3.97% and 2.96% and 6%
- Inhibition (%) EGFR (EGFR; 0.1 µM, individual Data 1-3): 28.6% and 31.2%
- Inhibition (%) EGFR (EGFR; 1 µM, individual Data 1-3): 59.9% and 57.5%
- Inhibition (%) EGFR (EGFR; 10 µM, individual Data 1-3): 82.3% and 86.7%
- Inhibition (%) EGFR (EGFR; 100 µM, individual Data 1-3): 90.54% and 95%
- inhibition at 0.1 µM (EGFR; read-out: Inhibition (%) EGFR, 0.1 µM, individual Data 1-3): 29.6%
- inhibition at 1 µM (EGFR; read-out: Inhibition (%) EGFR, 1 µM, individual Data 1-3): 62.3%
- inhibition at 10 µM (EGFR; read-out: Inhibition (%) EGFR, 10 µM, individual Data 1-3): 84.2%
- inhibition at 100 µM (EGFR; read-out: Inhibition (%) EGFR, 100 µM, individual Data 1-3): 92.4%
- IC50 (HCT-116): 14.5 ± 1.1 µM
- Cell Proliferation MCF-7 % (MCF-7 [6]; [8]): 73%
- Cell Proliferation MCF-7 Cell Count (MCF-7 [6]; mean ± SD of triplicate): 13,611 ± 485
- Reduction of growth/cell count (inhibition) in MCF-7 (MCF-7 [6]; relative to control): 27%
- IC50 at 24 h [3]: 75.2 ± 3.9 µM
